Laboratory results from patent publication US20180110777A1, “METHOD FOR REGULATION OF TELOMERE LENGTH” (The Johns Hopkins University, priority 2015, published 2018).
“And” between values parts separate entries of the source, which are not always exact repeats. Equal entries are not always repeated.

Experiments:
SL13 cells = assay: ADDIT assay (addition of de novo initiated telomeres; modified STELA with PacBio sequencing or Southern blot); assay type: cell-based, mouse; details: for de novo telomere addition / telomere elongation in ADDIT assay (in words): PacBio sequencing of STELA products, compared to controls; for percentage of CCS reads with de novo telomere addition (mean and SEM): SL13 cells pretreated prior to doxycycline, 10 μM KU55933, 3 μM Olaparib, 100 nM siATM, multiple experiments
From the text: To critically access the role of ATM, as well as other potential telomere length regulators, an assay was developed that measures telomere repeat addition in cells over 48 hr. CAST/EiJ mouse fibroblast cell line was engineered to (SL13) contain a conditional mTR allele and a modified chromosome 4 (chr4) with an internal 480 bp telomere ‘seed’ sequence followed by a unique I-Sce1 endonuclease cut site (FIG. 5 and see Experimental Procedures). The internal telomere ‘seed’ sequence can be conditionally exposed by I-Sce1 endonuclease cleavage (FIG. 1A) and then be elongated by telomerase in a manner similar to de novo telomere addition shown to occur in yeast (Diede and Gottschling, 1999, Cell 99, 723-733).
To better detect the telomere elongation, the single telomere length analysis (STELA) assay was modified (Baird et al., 2004, Hum Mol Genet 13, 1515-1524), to measure telomere length at the in vivo cut chr4. The linker, ‘telorette’, was ligated to the telomere and PCR amplified the telomere using the ‘teltail’ primer and an internal primer in the hygromycin resistance (HYG) sequence on the engineered chromosome (FIG. 1B). To determine the un-extended cut chromosome length in vitro, a different linker was designed, ‘IScerette’, which anneals to the 4-nt 3′ overhang created by the I-Sce1 endonuclease (FIG. 1B). PCR using the forward primers, F1 or F2, and the teltail generated products of predicted size on a Southern blot (data not shown).
To further verify telomere addition had occurred, the PCR products were sequenced with Pacific Biosciences (PacBio®) sequencing. PacBio® produces long sequence reads that allowed us to determine telomere length. While sequencing errors, predominantly point insertions and deletions, occurred as expected, the telomere repeats were easily recognizable. To assure products were full length, the PacBio® reads were filtered to examine only those that had the unique HYG sequence followed by the seed telomere repeat sequence and also had the ‘teltail’ primer sequence (FIG. 6). […] The I-Sce1 site is shown boxed (FIG. 1C). Three regions of variant telomere repeats were noted, evident as darker stripes in the aligned reads, that were present in the original SL13 clone, and served as useful sequence reference points (FIG. 1C). If there were degradation past these variants and then new TTAGGG (SEQ ID NO: 100) repeat synthesis in vivo, these landmarks would be removed.
The sequence length distribution in the ADDIT assay represents telomere elongation, incomplete telomere replication and in vivo end resection (as well as PacBio® sequencing errors).
Cell lines were grown in DMEM (Gibco) supplemented with 1% Penicillin/Streptomycin/Glutamine (PSG) and 10% heat inactivated FBS (Invitrogen). SL13 cells were grown in DMEM (Gibco) supplemented with 1% PSG and 10% Tet system approved FBS (Clontech, #631107). Cells were treated with ATM inhibitor KU55933 (R&D Systems, #3544), ATR inhibitor VE821 (Selleckchem, #S8007) or PARP1 inhibitor Olaparib (Selleckchem, #1060) at indicated concentrations or DMSO as a control. For the ADDIT assay, SL13 cells were treated with final concentration 2 μg/ml of doxycycline for typically 48 hr or as indicated.
The original STELA protocol used for human cells (Baird et al., 2004, Hum Mol Genet 13, 1515-1524) was modified to measure telomere lengths on the cut end of chr4 in SL13 cells. Briefly, genomic DNA was extracted using Puregene Core Kit A™ (Qiagen). 4 μg of genomic DNA was digested with Sph1 (NEB) and later diluted to 10 ng/μl in water. For the in vitro IScerette sample, genomic DNA was digested with SphI and I-SceI (NEB) prior to ligation. The ligation was carried out at 35° C. for at least 12 hr in a volume of 10 μl containing 10 ng of digested genomic DNA, 0.9 μM of telorette linkers or IScerette linker and 0.5 U of T4 DNA ligase (NEB) in 1×T4 ligation buffer. […]

telomerase = biological target: T1, telomerase (Homo sapiens, UniProt O14746); assay: Direct telomerase activity assay in lysates of treated cells; assay type: cell-based; details: 293TREx-0611 cells; 30 μM KU55933 or 5 μM Olaparib for two hours
T1 construct: expressed in transfected cells; host or cells: 293TREx-0611 cells overexpressing TPP1, POT1 and hTERT, transfected with U1-hTR; whole cell lysate
T1 sequence (O14746 whole entry): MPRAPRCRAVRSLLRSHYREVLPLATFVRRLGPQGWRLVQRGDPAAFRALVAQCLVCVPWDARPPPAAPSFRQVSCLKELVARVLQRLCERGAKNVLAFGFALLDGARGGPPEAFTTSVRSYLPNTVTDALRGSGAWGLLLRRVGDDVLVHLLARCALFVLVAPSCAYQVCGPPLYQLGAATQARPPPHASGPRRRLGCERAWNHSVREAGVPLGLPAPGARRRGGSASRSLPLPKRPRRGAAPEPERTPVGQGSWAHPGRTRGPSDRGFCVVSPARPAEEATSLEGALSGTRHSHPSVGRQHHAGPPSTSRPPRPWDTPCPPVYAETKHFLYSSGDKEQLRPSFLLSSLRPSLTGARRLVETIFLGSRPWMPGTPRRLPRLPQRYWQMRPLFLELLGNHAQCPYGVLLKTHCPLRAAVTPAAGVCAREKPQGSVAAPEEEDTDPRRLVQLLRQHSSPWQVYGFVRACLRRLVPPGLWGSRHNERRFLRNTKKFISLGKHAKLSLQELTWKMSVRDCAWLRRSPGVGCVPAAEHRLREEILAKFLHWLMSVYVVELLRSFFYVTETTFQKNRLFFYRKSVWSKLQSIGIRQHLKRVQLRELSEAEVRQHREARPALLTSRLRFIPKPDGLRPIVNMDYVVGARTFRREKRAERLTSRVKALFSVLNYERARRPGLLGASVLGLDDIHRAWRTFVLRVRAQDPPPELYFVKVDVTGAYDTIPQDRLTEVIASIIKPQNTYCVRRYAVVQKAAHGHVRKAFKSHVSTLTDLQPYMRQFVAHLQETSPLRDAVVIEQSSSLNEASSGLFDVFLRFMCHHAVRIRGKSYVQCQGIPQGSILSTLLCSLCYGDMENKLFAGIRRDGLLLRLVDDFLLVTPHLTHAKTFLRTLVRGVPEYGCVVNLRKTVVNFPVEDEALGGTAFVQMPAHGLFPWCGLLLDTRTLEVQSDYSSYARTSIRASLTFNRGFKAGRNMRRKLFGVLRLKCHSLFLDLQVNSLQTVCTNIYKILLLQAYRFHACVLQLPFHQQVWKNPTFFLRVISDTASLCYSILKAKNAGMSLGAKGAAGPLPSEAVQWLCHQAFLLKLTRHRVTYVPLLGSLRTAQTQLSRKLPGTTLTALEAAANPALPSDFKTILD
T1 sequence (O60832 whole entry partner): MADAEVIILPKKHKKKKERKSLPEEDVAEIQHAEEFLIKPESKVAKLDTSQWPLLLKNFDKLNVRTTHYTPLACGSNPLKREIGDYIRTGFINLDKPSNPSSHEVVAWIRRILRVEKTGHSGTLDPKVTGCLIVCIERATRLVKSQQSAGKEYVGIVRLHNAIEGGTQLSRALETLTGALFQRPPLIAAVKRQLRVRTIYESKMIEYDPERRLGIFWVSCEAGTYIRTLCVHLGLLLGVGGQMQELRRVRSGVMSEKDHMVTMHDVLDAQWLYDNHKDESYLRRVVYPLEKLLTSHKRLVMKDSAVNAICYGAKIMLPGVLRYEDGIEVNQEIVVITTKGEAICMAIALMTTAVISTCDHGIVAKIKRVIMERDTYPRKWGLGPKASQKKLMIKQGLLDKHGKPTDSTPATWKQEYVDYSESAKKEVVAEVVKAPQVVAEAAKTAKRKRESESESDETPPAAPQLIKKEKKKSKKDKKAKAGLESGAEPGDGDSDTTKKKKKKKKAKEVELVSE
T1 sequence (Q9NPE3 whole entry partner): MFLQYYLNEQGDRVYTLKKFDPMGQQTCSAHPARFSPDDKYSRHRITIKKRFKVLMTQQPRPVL
T1 sequence (Q9NX24 whole entry partner): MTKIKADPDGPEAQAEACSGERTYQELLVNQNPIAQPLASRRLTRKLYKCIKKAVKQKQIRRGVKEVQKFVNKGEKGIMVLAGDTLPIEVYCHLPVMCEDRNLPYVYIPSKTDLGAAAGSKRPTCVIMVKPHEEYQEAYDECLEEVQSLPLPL
T1 sequence (Q9NY12 whole entry partner): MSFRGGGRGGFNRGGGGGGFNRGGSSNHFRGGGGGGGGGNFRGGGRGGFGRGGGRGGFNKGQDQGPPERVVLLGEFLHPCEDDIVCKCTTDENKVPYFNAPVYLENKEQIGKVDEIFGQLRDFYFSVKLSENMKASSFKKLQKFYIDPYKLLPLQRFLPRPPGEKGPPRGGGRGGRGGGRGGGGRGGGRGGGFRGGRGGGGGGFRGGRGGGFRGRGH
Experimental: Telomerase is known to be phosphorylated, so whether the KU55933 or Olaparib treatment of cells might directly affect telomerase activity was examined. […] ATM kinase is a positive regulator of telomere elongation in both mouse and human cells, and the effects of ATM inhibition are not due to inhibition of telomerase enzyme activity.
Telomerase activity was assayed in whole cell lysates with a modified protocol (Nandakumar et al., 2012, Nature 492, 285-289). 293TREx-0611 cells overexpressing TPP1, POT1, and hTERT were seeded (3×10^5 cells) per well in a poly-D-Lysine coated 6-well plate. The next day, cells were transfected with U1-hTR using Lipofectamine™ 3000 and incubated overnight. Then, they were treated with 30 μM KU55933, 5 μM Olaparib, or DMSO for two hours before harvesting in 100 μl 1×CHAPS. Cells were lysed on ice for 30 minutes, vortexing occasionally, and cleared by spinning (8000 rpm, 20 min, 4° C.). For negative controls, 25 μl cleared lysate was incubated at 65° C. with 1 μl RNaseA (1 mg/ml) for 10 minutes. For direct telomerase assays, lysates were incubated with primer a5 (Wang et al., 2007) in 1× telomerase buffer (50 mM Tris-Cl, 30 mM KCl, 1 mM MgCl2, 1 mM spermidine), 0.5 mM dTTP, 0.5 mM dATP, 2.92 μM dGTP, and 0.33 μM α32P-dGTP at 30° C. Reactions were stopped at 10 or 15 minutes with 20 mM EDTA, 10 mM Tris spiked with 500 cpm end-labeled 18mer. […]

| Structure (SMILES) | de novo telomere addition / telomere elongation in ADDIT assay (in words) (SL13 cells) | percentage of CCS reads with de novo telomere addition (mean and SEM) (SL13 cells) | telomerase activity (telomerase) |
| --- | --- | --- | --- |
| O=c1cc(-c2cccc3c2Sc2ccccc2S3)oc(N2CCOCC2)c1 [KU55933] | significantly fewer telomere elongation products | 12.45±1.16% | no change in telomerase activity |
| O=C(c1cc(Cc2n[nH]c(=O)c3ccccc23)ccc1F)N1CCN(C(=O)C2CC2)CC1 [Olaparib] | small increase in telomere elongation | 26% and 26.1±1.19% | no change in telomerase activity |
